What was measured:
[1] = test system: P. falciparum stage V male gametocytes (male gamete formation); test: P. falciparum dual gamete formation assay (Pf DGFA), male readout (exflagellation), 48 h carry-over format; format: cell-based, Plasmodium falciparum NF54; conditions: primary screen, 2 uM, 48 h incubation, single replicate
Procedure: (§1) P. falciparum NF54 strain (originally isolated from an imported malaria case in the Netherlands in the 1980s; BEI Resources, cat. no. MRA-1000) asexual and sexual stages culture was performed as previously described. Gametocyte cultures were initiated at 1% asexual ring stage parasitaemia and 4% haematocrit in 40 ml final volume. To induce gametocyte production, complete culture medium (CM) (RPMI 1640 supplemented with 25 mM HEPES, 50 µg ml^−1 hypoxanthine, 2 g l^−1 NaHCO3 and 10% pooled human male type A+ serum) was replaced daily for 14 days without fresh erythrocyte addition. Human serum was obtained from Interstate Blood Bank, A^+ serotype; no aspirin 2 h before drawing and no antimalarials 2 weeks before drawing. On day 14 after culture induction, gametocyte production was assessed by thin smear and Giemsa staining, and exflagellation accurately counted in a haemocytometer. Gametocyte cultures with >0.2% exflagellation (compared to total erythrocyte cell number) were deemed acceptable for use in the Pf DGFA. Note, all human biological samples were sourced ethically and their research use was in accord with the terms of the informed consents under an IRB/EC approved protocol.
(§2) In screening mode, the assay was performed as described in Delves et al.[35] with a mean Z′ factor of 0.56 ± 0.14 (SD) (male) and 0.71 ± 0.17 (SD) (female). Pooled mature gametocyte cultures with the capacity to yield >0.2% exflagellation (of total cells) were diluted in CM to 14 million cells per ml and so that 700,000 cells were dispensed in 50 µl into each well of the warmed 384-well screening plates. Parasites were incubated in the plates with compounds for 48 h in a humidified chamber under 92%N2/5% CO2/3% O2 gas mix before gamete formation was triggered by addition of 10 µl per well ookinete medium (RPMI 1640 supplemented with 25 mM HEPES, 50 µg ml^−1 hypoxanthine, 2 g l^−1 NaHCO3, 100 µM xanthurenic acid) containing 0.5 µg ml^−1 anti-Pfs25 clone 4B7 (BEI Resources, cat. no. MRA-315) conjugated to the fluorophore Cy3 (GE Healthcare), and also by cooling the plate at 4 °C for 4 min and then a further 5 min at 28 °C. Exflagellation was recorded immediately by brightfield microscopy using a Nikon Ti-E widefield microscope at ×4 objective, ×1.5 zoom, recording a 10-frame video time-lapse over 2 s for each well. Afterwards, plates were incubated in the dark at 28 °C for a further 24 h to allow female gametes to maximally express Pfs25 on their surface. Female gamete formation was recorded by single-image fluorescence microscopy using the same microscope and magnification as above. Exflagellation and female gamete formation were quantified by specific algorithms designed with the open-source ICY Image Analysis software.
(§3) Assay performance statistics, such as signal to background ratio, Z′ and robust 3×SD activity cut-off were calculated using templates in ActivityBase XE (IDBS, Guilford, Surrey, UK). Hit population analysis and visualisation were conducted using Spotfire DecisionSite (Spotfire, Inc., Somerville, Massachusetts). The pIC50 (−log IC50) values were obtained using the ActivityBase XE nonlinear regression function in the full curve analysis bundle. In screening mode, the Pf DGFA achieved a mean Z′ factor of 0.56 ± 0.14 (SD) (male) and 0.71 ± 0.17 (SD) (female).

[2] = test system: P. falciparum stage V female gametocytes (female gamete formation); test: P. falciparum dual gamete formation assay (Pf DGFA), female readout (Pfs25 expression), 48 h carry-over format; format: cell-based, Plasmodium falciparum NF54; conditions: primary screen, 2 uM, 48 h incubation, single replicate
Procedure: as §1
as §2, with “Parasites were incubated in the plates with compounds for 48 h in a humidified chamber under” left out
as §3

Row | Structure (SMILES) | %Inhibition Male @2uM [1] [%] | %Inhibition Female @2uM [2] [%]
1 | Cc1cc2c(cc1NC(N)=O)OCO2 [DDD01037848] | <30 | 32.47
2 | O=C(NCc1ccco1)c1[nH]nc2c1CS(=O)(=O)CC2 [DDD01037866] | 48.15 | <30
3 | CCn1nc(C)c2nc(C)nc(NCCc3ccccc3)c21 [DDD01038123] | <30 | 30.36
4 | CCn1cc(CN2CCN(C(=O)c3cc(C)c(C)s3)CC2)c(C)n1 [DDD01038373] | <30 | 36.25
5 | CCN1CCN(C(=O)C2CC(=O)N(c3cnn(C(C)C)c3)C2)CC1 (stereo not drawn) [DDD01038633] | 42.61 | <30
6 | Cc1ccc2c(c1)c(C)cc(=O)n2CCCN [DDD01038649] | <30 | 33.62
7 | COc1ccc(NC(=O)c2cnc(C3CCN(C)CC3)nc2C)cc1 [DDD01056828] | 33.07 | <30
8 | CN(C)C(=O)CN1CCC(c2c(C(N)=O)sc3ncccc23)C1 (stereo not drawn) [DDD01056829] | 34.06 | <30
9 | CN1CC2(CCC(C(=O)N3CCOCC3)CC2)Oc2ccccc2C1=O (stereo not drawn) [DDD01056893] | 30.45 | <30
10 | O=C(NC1CC1)[C@H]1CN(Cc2ccccc2)C[C@@H]1C(=O)c1ccccc1 [DDD01056910] | 31.76 | <30
11 | CS(=O)(=O)N1CCCCC1c1ccc(Nc2cnccn2)nc1 (stereo not drawn) [DDD01057097] | 34.23 | <30
12 | CN1CCOC(C)(C(=O)Nc2nccs2)C1 (stereo not drawn) [DDD01057393] | 32.46 | <30
13 | O=C(Cn1cnc2cc3c(cc21)OCCCO3)NCCc1ccccc1 [DDD01057871] | <30 | 36.66
14 | COc1cccc(CC(=O)N2CCCC2c2nc(=O)c(C)c(C)[nH]2)c1 (stereo not drawn) [DDD01059601] | <30 | 33.02
15 | CNc1cncc(C2CCCN2c2cc(C)ncn2)n1 (stereo not drawn) [DDD01059901] | 44.44 | <30
16 | CC(=O)N1CCCC(c2ccccn2)C1 (stereo not drawn) [DDD01059909] | 30.93 | <30
17 | CN(C)C(=O)CN1CCC(c2cccc(Cc3ccc(F)cc3)n2)CC1 [DDD01060228] | 31.41 | <30
18 | CC(C)CC(=O)N1CCN(Cc2cc(-c3ccncc3)nn2C)CC1 [DDD01060230] | <30 | 78.93
19 | OC1(Cn2ccc3ncccc32)CCN(Cc2cc(F)cc(F)c2)CC1 [DDD01060275] | 30.37 | <30
20 | Cc1cncc(C(=O)N[C@@H]2CC[C@@H](N3CCOCC3)[C@@H]2O)c1 [DDD01060350] | <30 | 35.23

Row | Structure (SMILES) | %Inhibition Male @2uM [1] [%] | %Inhibition Female @2uM [2] [%]
21 | CC(=O)N1CCN([C@@H]2CC[C@@H](NC(=O)c3cc(C)cs3)[C@H]2O)CC1 [DDD01060352] | <30 | 32.18
22 | CC(C)(N)C(=O)N1CCCC1c1cncc(Oc2ccccc2)n1 (stereo not drawn) [DDD01060400] | <30 | 49.04
23 | Cc1nc2ccc(C(=O)N3CCn4c(nnc4C4CC4)C3)cc2nc1C [DDD01060815] | <30 | 31.88
24 | O=C(C1CCCCC1)N1CCC(c2[nH]nc3nccnc23)CC1 [DDD01060967] | <30 | 38.46
25 | O=C(c1cn[nH]n1)N1CCCC1C1CCCCC1 (stereo not drawn) [DDD01061770] | <30 | 30.76
26 | Cc1noc(C)c1CNC1CCN(c2ccccc2OC(F)F)C1 (stereo not drawn) [DDD01061833] | <30 | 39.11
27 | CN(C)c1ccc(CNC(=O)Nc2ccc(S(=O)(=O)C(F)F)cc2)cc1 [DDD01062359] | <30 | 41.45
28 | Cc1ccc(OCCCC(=O)Nc2nonc2C)cc1C [DDD01063175] | <30 | 30.83
29 | Cc1noc(C(C)Nc2ccc3oc(C)nc3c2)n1 (stereo not drawn) [DDD01064591] | <30 | 37.30
30 | CC1CN(C(=O)c2cnn(-c3ccccn3)c2C(C)C)CC(C)(C)O1 (stereo not drawn) [DDD01064602] | <30 | 40.46
31 | CCOc1nnc(CN2CCN(CCOC)C(C)C2)s1 (stereo not drawn) [DDD01065018] | 30.92 | <30
32 | c1cc(NCc2ccsc2)cc(-c2nnc[nH]2)c1 [DDD01065418] | 31.81 | <30
33 | Cc1nc(C)c(C(=O)N2CCc3c(Cl)cccc32)o1 [DDD01065842] | 32.65 | <30
34 | Cc1[nH]c(C2(N)CCCCC2)nc(=O)c1C [DDD01066687] | <30 | 32.19
35 | Cc1ccc(N2CCCC(N(C)Cc3cc(C)on3)C2)nn1 (stereo not drawn) [DDD01069945] | <30 | 39.02
36 | COc1cc(CNC(C)c2cccc(Cl)c2)cc(OC)c1OC (stereo not drawn) [DDD01069994] | 35.70 | <30
37 | COCc1noc(C2(c3cccc(Cl)c3)CCOCC2)n1 [DDD01070409] | 71.92 | <30
38 | O=C(CNc1cc2c(cc1Cl)OCCO2)NCC(F)(F)F [DDD01070591] | <30 | 39.90
39 | CCS(=O)(=O)NC1CCCN(c2ccc(F)cc2C)C1=O (stereo not drawn) [DDD01074148] | <30 | 33.10

— paper PMC6143625, “A high throughput screen for next-generation leads targeting malaria parasite transmission” (Nature Communications, 2018)
